Data published in patent US10934224B2, “Production of arginine-rich proteins from wastewater and use as a fertilizer” (Genebiologics, LLC, priority 2016, dated 2021).

Columns and labels:
[1] = tested on: Arabidopsis thaliana seeds; experiment: Arabidopsis thaliana seed germination and growth in liquid culture; type: in vivo; details: for root growth: 100 μg/ml in water; for optimal level (germination): day 4; for optimal level (biomass): day 5
Procedure: Approximately 300 Arabidopsis thaliana seeds were soaked in 75% ethanol for one minute, then soaked in 10% bleach, 0.02% TRITON×100 for five minutes, then washed five times with sterile water. The seeds were then resuspended in about 4 ml water, and dispensed into 30 Eppendorf tubes at approximately 100 microliters per tube, for a total of 8-9 seeds per tube. Test conditions included either water, 1× or 0.1×MS medium (Caisson; […] Root length and stem lengths are in mm.

[2] = Inhibition of cobalt binding to cation exchange resin; details: for effect on binding of cobalt to CM sepharose: 2.5 μM CoCl2, 0.95 μM inhibitor
Procedure: After sitting for 1 minute the sepharose was washed 2× with water to remove excess cobalt and inhibitor. The cobalt was then stripped from the column material with 50 μl of 50 mM EDTA and this cobalt-containing wash was made basic with 50 μl of 50 mM NaOH. The cobalt-containing wash was then monitored on a DU800 spectroscope at 463 nm wavelength for the data of Table 2 (FIG. 7), and from 350 nm to 650 nm for FIG. 5. The data of FIG. 5 and FIG. 7 were from separate experiments acquired on two different days.

[3] = cited from earlier work
[4] = tested on: E. coli strain NK5992; experiment: Growth of E. coli arginine auxotroph on arginine or polyarginine; type: cell-based
Procedure: Cells were grown in triplicate at 37° C. on a 96-well plate with measurement at 600 nm using a Tecan InfiniteM200 pro.

Molecule	root growth [1]	optimal level (germination) [1] [µg/mL]	effect on percent germination ([1]; day 4, added to 0.1×MS medium)	optimal level (biomass) [1] [µg/mL]	effect on binding of cobalt to CM sepharose [2]	effect on binding of cobalt to CM sepharose ([2]; listed as Arginine)	competition with cobalt for binding to CM sepharose ([2]; 2.6-fold excess cobalt per arginine monomer, anionic sites limiting)	pKa of guanidinium group [3]	growth of arginine auxotroph on the substance ([4]; M9 medium, 37° C., 600 nm)	growth relative to arginine monomer ([4]; on a per-monomer equivalency)	growth ([1]; 0.1× MS, 10 μg/ml, isolated case)
N=C(N)NCCC[C@H](N)C(=O)O [arginine]	not found	100	same relative effect	100	not by the presence of arginine	enhanced the binding of cobalt	did not compete	approximately 12.4	–	–	–
polyarginine	large amount of root growth	100	–	100	inhibited	–	–	–	does grow on polyarginine	grows more poorly	increased growth
